From publication PMC5520492, “Inhibition of DNA2 nuclease as a therapeutic strategy targeting replication stress in cancer cells” (Oncogenesis, 2017)
Counter-ions that a name gives are not always drawn. Like-named read-outs stand apart in the source and are kept apart here.

Tests used:
T5 nuclease = biological target: T1, T5 nuclease (Escherichia phage T5, UniProt P06229); assay: T5 nuclease counter-screen (fluorescence nuclease assay); type: biochemical; design: concentration or dose not given beside the values; conditions: re-screening against T5 nuclease
T1 construct: purchased NEB
T1 sequence (P06229 whole entry): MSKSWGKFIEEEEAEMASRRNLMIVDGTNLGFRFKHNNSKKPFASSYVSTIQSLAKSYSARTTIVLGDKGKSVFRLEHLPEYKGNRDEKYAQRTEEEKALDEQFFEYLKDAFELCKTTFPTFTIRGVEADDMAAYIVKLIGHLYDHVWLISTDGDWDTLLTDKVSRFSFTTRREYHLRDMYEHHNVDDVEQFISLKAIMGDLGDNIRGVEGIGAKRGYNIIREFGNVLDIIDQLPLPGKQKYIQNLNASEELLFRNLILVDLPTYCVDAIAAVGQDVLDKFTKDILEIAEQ
Protocol: (§1) The screen entailed the use of oligonucleotide (dT)30 having a reporter fluorescent moiety, 6-FAM on the 5′ end, and the dark quenching group, Iowa Black FQ, on the 3′ end. In addition, a second dark quencher ZEN was placed between the 9th and 10th base (Figure 2a). The fluorescence emitted by 6-FAM is quenched by FRET, but it increases when DNA is degraded by Dna2. […] The inhibitory activity of the compounds was determined as a reduction in fluorescent signal compared with the dimethylsulfoxide (DMSO) only control. […] We screened ~50 000 chemical compounds from six different libraries (Supplementary Table S1) to identify chemical inhibitors of the Dna2 nuclease activity. […] The DNA2 nuclease domain is well conserved among eukaryotes, and therefore we reasoned that inhibitors of yDna2 will likely also work with the human counterpart.
(§2) Initial screen, it was performed with yDna2.[22] Then, the top candidate compounds were tested on hDNA2. Identical reaction conditions were used for assaying the nuclease activity of yDna2 and hDNA2. […] The reaction buffer was 20 mM HEPES/NaOH, pH 7.5, 60 mM KCl, 1 mM DTT, 100 μg/ml bovine serum albumin and 0.05% Triton X-100. The nuclease assay was initiated by adding MgCl2 (3 mM final concentration). T5 nuclease was assayed in the buffer (50 mM potassium acetate, pH 7.9, 20 mM Tris-acetate, 10 mM magnesium acetate and 1 mM DTT) provided by the vendor (NEB, Ipswich, MA, USA). The concentration of the fluorogenic substrate was 0.1 μM. The optimal amount of yDna2, hDNA2 and T5 nuclease was determined by utilizing the Kaleidagraph software (Reading, PA, USA) to fit the data according to Michaelis Menton Kinetics (V=V0+Vmax*x/(Km+x)). […] The Z’ value was calculated as previously described.[50] Cell proliferation was determined using 4,6-diamidino-2-phenylindole staining followed by high-throughput microscopy in a 384-well plate setup. In brief, cells were fixed with formaldehyde, washed and stained with 4,6-diamidino-2-phenylindole and the number of nuclei in each well counted by automated microscopy. The data were analyzed as described.[51]

yDna2 = biological target: T2, yDna2 (Saccharomyces cerevisiae, UniProt P38859); assay: High-throughput fluorescence nuclease assay with yDna2 (triply labeled (dT)30 ssDNA); type: biochemical, yeast; conditions: for inhibition at 33.33 µM: read-out: % Inhibition yDna2
T2 construct: made in house
T2 sequence (P38859 whole entry): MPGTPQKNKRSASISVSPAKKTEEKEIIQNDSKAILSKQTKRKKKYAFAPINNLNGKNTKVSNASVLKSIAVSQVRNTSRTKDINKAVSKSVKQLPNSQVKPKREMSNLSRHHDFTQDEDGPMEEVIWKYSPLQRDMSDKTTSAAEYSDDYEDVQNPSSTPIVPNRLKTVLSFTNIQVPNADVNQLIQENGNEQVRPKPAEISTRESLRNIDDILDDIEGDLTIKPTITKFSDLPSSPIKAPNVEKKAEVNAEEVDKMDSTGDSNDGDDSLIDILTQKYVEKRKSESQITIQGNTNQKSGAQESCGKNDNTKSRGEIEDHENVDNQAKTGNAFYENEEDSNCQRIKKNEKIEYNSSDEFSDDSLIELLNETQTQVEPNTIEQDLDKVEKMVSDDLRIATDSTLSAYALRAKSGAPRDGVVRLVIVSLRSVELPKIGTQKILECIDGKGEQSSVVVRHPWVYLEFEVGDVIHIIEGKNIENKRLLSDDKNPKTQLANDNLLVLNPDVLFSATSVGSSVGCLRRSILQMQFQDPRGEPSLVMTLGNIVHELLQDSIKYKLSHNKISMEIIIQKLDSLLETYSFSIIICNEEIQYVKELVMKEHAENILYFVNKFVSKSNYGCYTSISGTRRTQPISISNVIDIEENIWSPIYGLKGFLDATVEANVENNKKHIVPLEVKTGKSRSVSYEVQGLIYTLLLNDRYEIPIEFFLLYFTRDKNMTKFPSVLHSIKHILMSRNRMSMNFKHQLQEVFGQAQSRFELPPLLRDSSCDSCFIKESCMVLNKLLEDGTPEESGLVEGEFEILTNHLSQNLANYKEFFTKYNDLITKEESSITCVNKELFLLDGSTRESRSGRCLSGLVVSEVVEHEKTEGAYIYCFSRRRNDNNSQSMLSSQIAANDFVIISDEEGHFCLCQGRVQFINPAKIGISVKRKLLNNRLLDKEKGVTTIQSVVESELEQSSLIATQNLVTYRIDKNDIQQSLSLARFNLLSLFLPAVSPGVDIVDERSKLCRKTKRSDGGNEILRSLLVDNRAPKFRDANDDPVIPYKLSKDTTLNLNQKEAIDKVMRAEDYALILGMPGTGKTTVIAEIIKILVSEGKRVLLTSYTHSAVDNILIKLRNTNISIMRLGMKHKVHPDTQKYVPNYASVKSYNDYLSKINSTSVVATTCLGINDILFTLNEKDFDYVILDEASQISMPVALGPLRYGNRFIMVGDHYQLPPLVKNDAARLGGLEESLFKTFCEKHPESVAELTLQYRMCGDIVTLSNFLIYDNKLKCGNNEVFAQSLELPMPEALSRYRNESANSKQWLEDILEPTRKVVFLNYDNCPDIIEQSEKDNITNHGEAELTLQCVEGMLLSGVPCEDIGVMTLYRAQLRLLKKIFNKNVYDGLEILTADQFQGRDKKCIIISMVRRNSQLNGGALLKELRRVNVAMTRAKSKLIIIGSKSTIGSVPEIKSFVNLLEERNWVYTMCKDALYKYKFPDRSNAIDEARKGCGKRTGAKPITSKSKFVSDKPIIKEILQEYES
Protocol: as §1, §2

U2OS cells = assay: Cell-based viability/proliferation screen, DAPI staining and automated microscopy; design: species or system human; conditions: Homo sapiens, 10 pM to 10 μM, DAPI staining, read-out: IC50 from Screening Cell Based
Protocol: The biological effectiveness of the 39 compounds selected by re-screening was determined by measuring their half maximal inhibitory concentration (IC50) biochemically and in a cell-based system using the 384-well platform (Supplementary Table S2). […] We conducted the viability assay in duplicate on three separate occasions using a concentration range of 10 pM to 10 μM for each compound. Cell proliferation was determined using 4,6-diamidino-2-phenylindole staining and microscopy.
In addition, a second dark quencher ZEN (N,N-diethyl-4-(4-nitronaphthalen-1-ylazo)-phenylamine, absorption max.=532 nm) is placed between 9th and 10th base (Figure 2a). Initial screen, it was performed with yDna2.[22] Then, the top candidate compounds were tested on hDNA2. Identical reaction conditions were used for assaying the nuclease activity of yDna2 and hDNA2. […] The reaction buffer was 20 mM HEPES/NaOH, pH 7.5, 60 mM KCl, 1 mM DTT, 100 μg/ml bovine serum albumin and 0.05% Triton X-100. The nuclease assay was initiated by adding MgCl2 (3 mM final concentration). T5 nuclease was assayed in the buffer (50 mM potassium acetate, pH 7.9, 20 mM Tris-acetate, 10 mM magnesium acetate and 1 mM DTT) provided by the vendor (NEB, Ipswich, MA, USA). The concentration of the fluorogenic substrate was 0.1 μM. The optimal amount of yDna2, hDNA2 and T5 nuclease was determined by utilizing the Kaleidagraph software (Reading, PA, USA) to fit the data according to Michaelis Menton Kinetics (V=V0+Vmax*x/(Km+x)). […] All the compounds were dissolved in DMSO and DMSO alone was used as control; the final concentration of DMSO was at 3.33% for protein-based assay and 0.1% for cell-based assay. The Z’ value was calculated as previously described.[50] Cell proliferation was determined using 4,6-diamidino-2-phenylindole staining followed by high-throughput microscopy in a 384-well plate setup. In brief, cells were fixed with formaldehyde, washed and stained with 4,6-diamidino-2-phenylindole and the number of nuclei in each well counted by automated microscopy. The data were analyzed as described.[51]

[1] = screen at fixed inhibitor concentration (33.33 μM), 0.09 nM Dna2

Compound	% Inhibition T5 nuclease (T5 nuclease) [%]	% Inhibition yDna2 (yDna2; [1]) [%]	also measured
[Mo] [NSC622124]	96.1	93.4	
O=C(Nc1ccc(C2=NCCN2)cc1)c1ccc(Cl)c(C(=O)Nc2ccc(C3=NCCN3)cc2)c1 [NSC67436]	100	100	
O=C(Nc1ccc(Nc2ccncc2)cc1)c1ccc(Nc2ccnc3ccc([N+](=O)[O-])cc23)cc1 [NSC146771]	100	76.5	
CCCCC(CC)CNC(=N)NC(=N)NCCCCCCNC(=N)NC(=N)NCC(CC)CCCC (stereo not drawn) [Alexidine dihydrochloride, reference compound]	100		inhibition at 33.33 µM (yDna2; [1]): 63.5%
O=C(Nc1ccc(C2=NCCN2)cc1)c1ccc(C(=O)Nc2ccc(C3=NCCN3)cc2)c(Cl)c1 [NSC60339]	100		inhibition at 33.33 µM (yDna2): 100%
CN1CCN(c2ccc3nc(-c4c(N)c5c(F)cccc5[nH]c4=O)[nH]c3c2)CC1 [(Dovitinib) CHIR258, Dovitinib, reference compound]	60.2		inhibition at 33.33 µM (yDna2; [1]): 54%
COc1cccc2c1C(=O)c1c(O)c3c(c(O)c1C2=O)CC(O)(/C(C)=N/O)CC3OC1CC(N)C(O)C(C)O1 (stereo not drawn) [NSC143491]	97.9	100	
COc1cccc2c1C(=O)c1c(O)c3c(c(O)c1C2=O)C[C@@](O)(C(C)=O)C[C@@H]3O[C@H]1C[C@H](N)[C@H](O)[C@H](C)O1 [Daunorubicin hydrochloride, reference compound]	98.1		inhibition at 33.33 µM (yDna2): 100%
CCN(CC)CCCC(C)Nc1nc(C)cc(Nc2ccc3nc(C)cc(N)c3c2)n1 (stereo not drawn) [NSC23766, reference compound]	94.7	100	
COc1ccc2nc(C)cc(NCCCCCCCCCNc3cc(C)nc4ccc(OC)cc34)c2c1 [NSC10010]	93.7	90.3	
Cc1cc(N)c2cc(NC(=O)/C=C/c3ccccc3Cl)ccc2n1 [NSC33353]	100	100	
Cc1cc2c(c3oc(C4(C)OC4C4OC4C)cc(=O)c13)C(=O)c1c(O)c(C3CC(C)(N(C)C)C(O)C(C)O3)cc(C3CC(N(C)C)C(O)C(C)O3)c1C2=O (stereo not drawn) [NSC70929]	100	100	
Nc1ccc(Cn2ccc3c4c(N)nc(N)nc4ccc32)cc1 [NSC309401]	100	100	
CO[C@H]1C[C@@H]2\C=C(C)/C=C/C=C\C(=O)N[C@H](c3ccccc3)C/C=C/CC[C@H](O)CC(=O)C2=C1O [NSC343256]	72	71	
NC(N)=NCCCS(=O)(=O)Nc1ccc(Nc2c3ccccc3nc3cc([N+](=O)[O-])ccc23)cc1 [NSC177365]	100	83.3	
CC(=O)[O-].Cc1c2cc[n+](CCN3CCCCC3)cc2c(C)c2c1[nH]c1ccc(O)cc12 [NSC311153]	100	100	
Cc1cc2nc3ccc(N(C)C)cc3[s+]c2cc1N [NSC36758]	83.9		inhibition at 33.33 µM (yDna2; [1]): 100%

Compound	% Inhibition T5 nuclease (T5 nuclease) [%]	% Inhibition yDna2 (yDna2; [1]) [%]	also measured
CCN(CC)Cc1cc2[nH]c3c4ccc(Cl)cc4ncc3c2cc1OC [NSC317605]	99.2	100	
Cn1ccc(=Nc2ccc(NC(=O)c3ccc(N=c4ccn(C)c5ccc([N+](=O)[O-])cc45)cc3)cc2)cc1 [NSC260594]	100	94.8	
COc1cc(-c2ccc(N=Nc3ccc4c(S(=O)(=O)[O-])cc(S(=O)(=O)[O-])c(N)c4c3O)c(OC)c2)ccc1N=Nc1ccc2c(S(=O)(=O)[O-])cc(S(=O)(=O)[O-])c(N)c2c1O.[Na+].[Na+].[Na+].[Na+] [Chicago Sky blue 6B, reference compound]	100	69	
CN(C)C/C=C/C(=O)Nc1cc2c(Nc3ccc(F)c(Cl)c3)ncnc2cc1O[C@H]1CCOC1 [BIBW2992, reference compound]			IC50 (U2OS cells): 1.2 µM; IC50 (yDna2; compounds that inhibit yDna2 but not T5 nuclease, 384-well platform, read-out: IC50 from Screening In Vitro): 7.2 µM
c1ccc2c(NCCCCCCCCNc3c4ccccc4nc4ccccc34)c3ccccc3nc2c1 [NSC219734]	100	85	
COc1ccc2c(C)nc(NC3=NC(C)(C)CC(C)=N3)nc2c1 [Compound 5309857]	77.3	59.9	
COc1cccc2c1C(=O)c1c(O)c3c(c(O)c1C2=O)C[C@@](O)(C(=O)CO)C[C@@H]3O[C@H]1C[C@H](N)[C@H](O)[C@H](C)O1 [Doxorubicin hydrochloride, reference compound]	100		inhibition at 33.33 µM (yDna2; [1]): 100%
Cc1cc(NCCCCCCCNc2cc(C)nc3cc(N)ccc23)c2ccc(N)cc2n1 [NSC273829]	56.5		inhibition at 33.33 µM (yDna2; [1]): 74.4%
CCN(CC)CCCC(C)Nc1c2ccc(Cl)cc2nc2ccc(OC)cc12 (stereo not drawn) [Quinacrine dihydrochloride, reference compound]	55.4		inhibition at 33.33 µM (yDna2; [1]): 67.8%
COc1ccc2c(NCCCCCCNc3c4ccccc4nc4cc(OC)ccc34)c3ccccc3nc2c1 [NSC260610]	100		inhibition at 33.33 µM (yDna2; [1]): 100%
ClN=C1C=CC=CC1=NCl [NSC344494]	97.9	51.4	
Cc1cc(N)c2ccccc2[n+]1CCCCCCCCCC[n+]1c(C)cc(N)c2ccccc21 [NSC166454]	88.9		inhibition at 33.33 µM (yDna2; [1]): 55.4%
CC[N+](C)(CC)CCC[n+]1c(-c2ccccc2)c2cc(N)ccc2c2ccc(N)cc21.[I-].[I-] [Propidium Iodide, reference compound]	100	100	
O=C1c2c(O)ccc(O)c2C(=O)c2c(NCCNCCO)ccc(NCCNCCO)c21 [Mitoxantrone dihydrochloride, reference compound]	100		inhibition at 33.33 µM (yDna2; [1]): 100%
Cl.O=C1c2cccc(NCCCNCCO)c2C(=O)c2cccc(NCCCNCCO)c21 [NSC363998]	74.5	99	
Deqalinium dichloride [reference compound]	100	100	
